Measurements from the NIST ThermoML archive (doi:10.1021/je100594u).
“And” between values parts separate entries of the source, which are not always exact repeats. Equal values may be shown once.

What was measured:
[1] = 298.15 K, 101.3 kPa, Liquid; for viscosity: Capillary tube (Ostwald / Ubbelohde) method; for speed of sound: Linear variable-path acoustic interferometer; for mass density: Pycnometric method
[2] = refractive index (Na D-line) (dimensionless); conditions: 298.15 K; 101.33 kPa; Liquid
[3] = xn = mol fraction of the nth substance listed; conditions: 298.15 K, 101.3 kPa, Liquid; for viscosity: Capillary tube (Ostwald / Ubbelohde) method; for speed of sound: Linear variable-path acoustic interferometer; for mass density: Pycnometric method
[4] = refractive index (Na D-line) (dimensionless); xn = mol fraction of the nth substance listed; conditions: 298.15 K, 101.3 kPa, Liquid

C1COCO1 [1,3-dioxolane]
Conditions	mass density [kg/m3]	refractive index	speed of sound	viscosity [mPa·s]
[1]	1058.7	–	1339.4 m/s and 1339.5 m/s	0.5894
[2]	–	1.3985	–	–

C1COCO1 [1,3-dioxolane] + CCCCCO
Conditions	mass density, [3] [kg/m3]	refractive index, [4]	speed of sound, [3] [m/s]	viscosity, [3] [mPa·s]
x1 = 0.1168	832.9	1.4085	1278.8	2.505
x1 = 0.2293	854.5	1.4072	1287.5	1.885
x1 = 0.3377	876.6	1.406	1296.8	1.44
x1 = 0.4424	899.2	1.405	1305	1.063
x1 = 0.5434	922.5	1.404	1313.4	0.9063
x1 = 0.6409	946.8	1.403	1321.5	0.756
x1 = 0.7352	972.5	1.4022	1327.1	0.6472
x1 = 0.8264	999.3	1.401	1332.7	0.5704
x1 = 0.9146	1028.2	1.4	1337	0.5413
x1 = 1	1058.7	1.3985	1339.5	0.5894

C1COCO1 [1,3-dioxolane] + CCOCC
x1 = 1
Conditions	mass density [kg/m3]	refractive index	speed of sound [m/s]	viscosity [mPa·s]
[3]	1058.7	–	1339.4	0.5894
[4]	–	1.3985	–	–

CCOCC [diethyl ether]
Conditions	mass density [kg/m3]	refractive index	speed of sound [m/s]	viscosity [mPa·s]
[1]	708.3	–	982.3	0.2469
[2]	–	1.3515	–	–

CCOCC [diethyl ether] + C1COCO1
Conditions	mass density, [3] [kg/m3]	refractive index, [4]	speed of sound, [3]	viscosity, [3] [mPa·s]
x2 = 0	708.3	1.3515	982.3 m/s	0.2469
x2 = 0.1	736.4	1.3568	1003.9 m/s	0.2656
x2 = 0.2	765.6	1.3604	1033.4 m/s	0.2844
x2 = 0.3001	796.3	1.3649	1067.4 m/s	0.3055
x2 = 0.4001	829	1.3696	1108.5 m/s	0.331
x2 = 0.5001	863.4	1.3743 and 1.375	1152.8 m/s and 1149.2 m/s	0.3604
x2 = 0.6001	899.7	1.3791	1191.4 m/s	0.3944
x2 = 0.7001	938.2	1.3842	1230.9 m/s	0.4345
x2 = 0.8	977	1.3893	1265.3 m/s	0.4784
x2 = 0.9	1018.4	1.3956	1302.4 m/s	0.5305

CCOCC [diethyl ether] + CCCCCO
Conditions	mass density, [3] [kg/m3]	refractive index, [4]	speed of sound, [3] [m/s]	viscosity, [3] [mPa·s]
x1 = 0.1167	805.2	1.4043	1241.8	2.651
x1 = 0.2292	797.5	1.3977	1216.7	1.966
x1 = 0.3377	788.9	1.3922	1193.9	1.491
x1 = 0.4423	779.7	1.3874	1172.2	1.123
x1 = 0.5433	770.4	1.3825	1141.6	0.8294
x1 = 0.6409	759.5	1.3774	1110.7	0.6199
x1 = 0.7352	747.9	1.3724	1077.3	0.4811
x1 = 0.8263	736.1	1.3664	1046.3	0.382
x1 = 0.9146	723	1.3601	1011.2	0.3141
x1 = 1	708.3	1.3515	982.3	0.2469

CCCCCO [pentan-1-ol]
Conditions	mass density [kg/m3]	refractive index	speed of sound [m/s]	viscosity
[1]	811.2	–	1271.6	3.504 mPa·s and 3.404 mPa·s
[2]	–	1.41	–	–

CCCCCO [pentan-1-ol] + C1COCO1
x2 = 0
Conditions	mass density [kg/m3]	refractive index	speed of sound [m/s]	viscosity [mPa·s]
[3]	811.2	–	1271.6	3.504
[4]	–	1.41	–	–

CCCCCO [pentan-1-ol] + CCOCC
x2 = 0
Conditions	mass density [kg/m3]	refractive index	speed of sound [m/s]	viscosity [mPa·s]
[3]	811.2	–	1271.6	3.504
[4]	–	1.41	–	–
